In ChEMBL document CHEMBL5543144, “Discovery of a Novel Potent Tetrazole Antifungal Candidate with High Selectivity and Broad Spectrum” (J Med Chem, 2024):
In brackets after ≈: the same amount, converted by molar mass.

Assays:
Format in all cases: functional
Candida albicans = assay: Antifungal activity against Candida albicans SC5314 assessed as inhibition of fungal growth incubated for 24 hrs by CLSI protocol based microbroth dilution method
Candida parapsilosis = assay: Antifungal activity against Candida parapsilosis 22019 assessed as inhibition of fungal growth incubated for 24 hrs by CLSI protocol based microbroth dilution method; settings: Lodderomyces parapsilosis
Candida tropicalis = assay: Antifungal activity against Candida tropicalis 2718 assessed as inhibition of fungal growth incubated for 24 hrs by CLSI protocol based microbroth dilution method
Pichia kudriavzevii = assay: Antifungal activity against Candida krusei 4946 assessed as inhibition of fungal growth incubated for 24 hrs by CLSI protocol based microbroth dilution method
Nakaseomyces glabratus = assay: Antifungal activity against Candida glabrata 537 assessed as inhibition of fungal growth incubated for 48 hrs by CLSI protocol based microbroth dilution method
Cryptococcus neoformans = assay: Antifungal activity against Cryptococcus neoformans H99 assessed as inhibition of fungal growth incubated for 72 hrs by CLSI protocol based microbroth dilution method
Aspergillus fumigatus = assay: Antifungal activity against Aspergillus fumigatus 7544 assessed as inhibition of fungal growth incubated for 48 hrs by CLSI protocol based microbroth dilution method

MIC50 (Candida albicans) | MIC50 (Candida parapsilosis) | MIC50 (Candida tropicalis) | MIC50 (Pichia kudriavzevii) | MIC50 (Nakaseomyces glabratus) | MIC50 (Cryptococcus neoformans) | MIC50 (Aspergillus fumigatus) | SMILES
0.5 µg/mL (≈ 0.913 µM) | 0.5 µg/mL (≈ 0.913 µM) | 0.5 µg/mL (≈ 0.913 µM) | > 64 µg/mL | 1 µg/mL (≈ 1.83 µM) | > 64 µg/mL | > 64 µg/mL | C[C@@H](n1ncc2cn(-c3ccc(OC(F)(F)F)cc3)nc2c1=O)[C@](O)(Cn1cncn1)c1ccc(F)cc1F
0.5 µg/mL (≈ 0.969 µM) | 2 µg/mL (≈ 3.88 µM) | 0.5 µg/mL (≈ 0.969 µM) | > 64 µg/mL | 8 µg/mL (≈ 15.5 µM) | > 64 µg/mL | > 64 µg/mL | C[C@@H](n1ncc2cn(-c3ccc(F)c(Cl)c3)nc2c1=O)[C@](O)(Cn1cncn1)c1ccc(F)cc1F
0.25 µg/mL (≈ 0.47 µM) | 0.5 µg/mL (≈ 0.941 µM) | 0.5 µg/mL (≈ 0.941 µM) | 16 µg/mL (≈ 30.1 µM) | 0.5 µg/mL (≈ 0.941 µM) | 1 µg/mL (≈ 1.88 µM) | > 64 µg/mL | C[C@@H](n1ncc2cn(-c3ccc(C(F)(F)F)cc3)nc2c1=O)[C@](O)(Cn1cncn1)c1ccc(F)cc1F
0.5 µg/mL (≈ 1 µM) | 1 µg/mL (≈ 2 µM) | 0.25 µg/mL (≈ 0.501 µM) | > 64 µg/mL | 1 µg/mL (≈ 2 µM) | > 64 µg/mL | > 64 µg/mL | C[C@@H](n1ncc2cn(-c3ccc(F)c(F)c3)nc2c1=O)[C@](O)(Cn1cncn1)c1ccc(F)cc1F
0.5 µg/mL (≈ 1.08 µM) | 1 µg/mL (≈ 2.16 µM) | 0.5 µg/mL (≈ 1.08 µM) | > 64 µg/mL | 1 µg/mL (≈ 2.16 µM) | > 64 µg/mL | > 64 µg/mL | C[C@@H](n1ncc2cn(-c3ccccc3)nc2c1=O)[C@](O)(Cn1cncn1)c1ccc(F)cc1F
0.25 µg/mL (≈ 0.519 µM) | 2 µg/mL (≈ 4.15 µM) | 1 µg/mL (≈ 2.08 µM) | 8 µg/mL (≈ 16.6 µM) | 4 µg/mL (≈ 8.31 µM) | 2 µg/mL (≈ 4.15 µM) | > 64 µg/mL | C[C@@H](n1ncc2cn(-c3ccc(F)cc3)nc2c1=O)[C@](O)(Cn1cncn1)c1ccc(F)cc1F
0.125 µg/mL (≈ 0.235 µM) | 0.25 µg/mL (≈ 0.47 µM) | 0.25 µg/mL (≈ 0.47 µM) | > 64 µg/mL | 0.5 µg/mL (≈ 0.939 µM) | > 64 µg/mL | > 64 µg/mL | C[C@@H](n1ncc2cn(-c3ccc(Cl)c(Cl)c3)nc2c1=O)[C@](O)(Cn1cncn1)c1ccc(F)cc1F
0.5 µg/mL (≈ 1.02 µM) | 1 µg/mL (≈ 2.05 µM) | 1 µg/mL (≈ 2.05 µM) | > 64 µg/mL | 0.5 µg/mL (≈ 1.02 µM) | 8 µg/mL (≈ 16.4 µM) | > 64 µg/mL | C[C@@H](n1ncc2cn(-c3ccc(C#N)cc3)nc2c1=O)[C@](O)(Cn1cncn1)c1ccc(F)cc1F
0.5 µg/mL (≈ 1 µM) | 1 µg/mL (≈ 2.01 µM) | 1 µg/mL (≈ 2.01 µM) | > 64 µg/mL | 1 µg/mL (≈ 2.01 µM) | 4 µg/mL (≈ 8.03 µM) | > 64 µg/mL | C[C@@H](n1ncc2cn(-c3ccc(Cl)cc3)nc2c1=O)[C@](O)(Cn1cncn1)c1ccc(F)cc1F
< 0.008 µg/mL | < 0.008 µg/mL | < 0.008 µg/mL | 0.016 µg/mL (≈ 0.0386 µM) | 0.016 µg/mL (≈ 0.0386 µM) | < 0.008 µg/mL | 0.25 µg/mL (≈ 0.603 µM) | C[C@@H](n1ccc2cc(F)ccc2c1=O)[C@](O)(Cn1cncn1)c1ccc(F)cc1F
0.008 µg/mL (≈ 0.0201 µM) | 0.063 µg/mL (≈ 0.159 µM) | 0.063 µg/mL (≈ 0.159 µM) | 1 µg/mL (≈ 2.52 µM) | 0.031 µg/mL (≈ 0.078 µM) | 0.063 µg/mL (≈ 0.159 µM) | 4 µg/mL (≈ 10.1 µM) | C[C@@H](n1ncc2ccccc2c1=O)[C@](O)(Cn1cncn1)c1ccc(F)cc1F
< 0.008 µg/mL | < 0.008 µg/mL | < 0.008 µg/mL | 0.063 µg/mL (≈ 0.132 µM) | 0.016 µg/mL (≈ 0.0336 µM) | < 0.008 µg/mL | 1 µg/mL (≈ 2.1 µM) | C[C@@H](n1ncc2cc(Br)ccc2c1=O)[C@](O)(Cn1cncn1)c1ccc(F)cc1F

The remaining lines, values behind:

SMILES | MIC50 (Candida albicans) | MIC50 (Candida parapsilosis) | MIC50 (Candida tropicalis) | MIC50 (Pichia kudriavzevii) | MIC50 (Nakaseomyces glabratus) | MIC50 (Cryptococcus neoformans) | MIC50 (Aspergillus fumigatus)
Cc1ccc2c(=O)n([C@H](C)[C@](O)(Cn3cncn3)c3ccc(F)cc3F)ccc2c1 | < 0.008 µg/mL | < 0.008 µg/mL | < 0.008 µg/mL | 0.125 µg/mL (≈ 0.305 µM) | < 0.008 µg/mL | < 0.008 µg/mL | 0.5 µg/mL (≈ 1.22 µM)
C[C@@H](n1ccc2cc(-c3ccccc3)ccc2c1=O)[C@](O)(Cn1cncn1)c1ccc(F)cc1F | < 0.008 µg/mL | 0.063 µg/mL (≈ 0.133 µM) | 0.016 µg/mL (≈ 0.0339 µM) | 1 µg/mL (≈ 2.12 µM) | 0.063 µg/mL (≈ 0.133 µM) | 0.5 µg/mL (≈ 1.06 µM) | 8 µg/mL (≈ 16.9 µM)
C[C@@H](n1ccc2cc(OC(F)(F)F)ccc2c1=O)[C@](O)(Cn1cncn1)c1ccc(F)cc1F | < 0.008 µg/mL | < 0.008 µg/mL | < 0.008 µg/mL | 0.063 µg/mL (≈ 0.131 µM) | < 0.008 µg/mL | < 0.008 µg/mL | 1 µg/mL (≈ 2.08 µM)
C[C@@H](n1ccc2cc(Cl)ccc2c1=O)[C@](O)(Cn1cncn1)c1cc(F)ccc1F | < 0.008 µg/mL | < 0.008 µg/mL | < 0.008 µg/mL | 0.063 µg/mL (≈ 0.146 µM) | < 0.008 µg/mL | < 0.008 µg/mL | 0.25 µg/mL (≈ 0.58 µM)
C[C@@H](n1ccc2cc(F)ccc2c1=O)[C@](O)(Cn1cnnn1)c1ccc(F)cc1F | < 0.008 µg/mL | 0.063 µg/mL (≈ 0.152 µM) | < 0.008 µg/mL | 1 µg/mL (≈ 2.41 µM) | 0.063 µg/mL (≈ 0.152 µM) | 0.016 µg/mL (≈ 0.0385 µM) | 4 µg/mL (≈ 9.63 µM)
C[C@@H](n1ccc2cc(Br)ccc2c1=O)[C@](O)(Cn1cncn1)c1ccc(F)cc1F | < 0.008 µg/mL | < 0.008 µg/mL | < 0.008 µg/mL | 0.063 µg/mL (≈ 0.133 µM) | < 0.008 µg/mL | < 0.008 µg/mL | 1 µg/mL (≈ 2.1 µM)
C[C@@H](n1cnc2cc(C(F)(F)F)ccc2c1=O)[C@](O)(Cn1cnnn1)c1ccc(F)cc1F | < 0.008 µg/mL | 0.125 µg/mL (≈ 0.268 µM) | < 0.008 µg/mL | > 4 µg/mL | < 0.008 µg/mL | 4 µg/mL (≈ 8.58 µM) | 16 µg/mL (≈ 34.3 µM)
C[C@@H](n1ccc2cc(F)ccc2c1=O)[C@](O)(Cn1cncn1)c1cc(F)ccc1F | < 0.008 µg/mL | < 0.008 µg/mL | < 0.008 µg/mL | 0.125 µg/mL (≈ 0.302 µM) | < 0.008 µg/mL | < 0.008 µg/mL | 0.25 µg/mL (≈ 0.603 µM)
C[C@@H](n1ncc2cc(Cl)ccc2c1=O)[C@](O)(Cn1cncn1)c1cc(F)ccc1F | < 0.008 µg/mL | < 0.008 µg/mL | < 0.008 µg/mL | 0.125 µg/mL (≈ 0.289 µM) | < 0.008 µg/mL | < 0.008 µg/mL | 0.25 µg/mL (≈ 0.579 µM)
C[C@@H](n1cnc2cc(F)ccc2c1=O)[C@](O)(Cn1cnnn1)c1ccc(F)cc1F | < 0.008 µg/mL | 0.5 µg/mL (≈ 1.2 µM) | 0.25 µg/mL (≈ 0.6 µM) | > 4 µg/mL | 0.25 µg/mL (≈ 0.6 µM) | 4 µg/mL (≈ 9.61 µM) | 16 µg/mL (≈ 38.4 µM)
C[C@@H](n1ccc2cc(C(F)(F)F)ccc2c1=O)[C@](O)(Cn1cncn1)c1ccc(F)cc1F | < 0.008 µg/mL | < 0.008 µg/mL | < 0.008 µg/mL | 0.063 µg/mL (≈ 0.136 µM) | < 0.008 µg/mL | < 0.008 µg/mL | 0.5 µg/mL (≈ 1.08 µM)
C[C@@H](n1cnc2cc(OC(F)(F)F)ccc2c1=O)[C@](O)(Cn1cnnn1)c1ccc(F)cc1F | < 0.008 µg/mL | 0.25 µg/mL (≈ 0.518 µM) | 0.031 µg/mL (≈ 0.0643 µM) | > 4 µg/mL | < 0.008 µg/mL | 0.125 µg/mL (≈ 0.259 µM) | 32 µg/mL (≈ 66.3 µM)
C[C@@H](n1ccc2ccccc2c1=O)[C@](O)(Cn1cncn1)c1ccc(F)cc1F | < 0.008 µg/mL | 0.016 µg/mL (≈ 0.0404 µM) | 0.016 µg/mL (≈ 0.0404 µM) | 0.125 µg/mL (≈ 0.315 µM) | 0.016 µg/mL (≈ 0.0404 µM) | 0.016 µg/mL (≈ 0.0404 µM) | 0.5 µg/mL (≈ 1.26 µM)
COc1ccc2c(=O)n([C@H](C)[C@](O)(Cn3cncn3)c3ccc(F)cc3F)ccc2c1 | < 0.008 µg/mL | < 0.008 µg/mL | < 0.008 µg/mL | 0.125 µg/mL (≈ 0.293 µM) | < 0.008 µg/mL | < 0.008 µg/mL | 1 µg/mL (≈ 2.35 µM)
